In ChEMBL document CHEMBL1201862, “PubChem BioAssay data set” (2004):
Active and inactive are the calls of the source.

Assays:
[1] = target: Troponin, cardiac muscle (Homo sapiens, UniProt P19429+P45379+P63316); test: Fluorescence-based biochemical high throughput dose response assay for activators of the calcium sensitivity of cardiac Regulated Thin Filaments (RTF). [Related pubchem assays (depositor defined):AID493008, AID493018, AID504382, AID504383]; assay type: protein-complex assay
[2] = target: Voltage-dependent T-type calcium channel subunit alpha-1H (Homo sapiens, UniProt O95180); test: Cav3.2 T-type channel inhibitors, cell-based, synthetic library set 1, calcium flux (AID 493022); assay type: functional
[3] = target: T1, Tyrosine-protein phosphatase non-receptor type 7 (Homo sapiens, UniProt P35236); test: redox-dependent HePTP inhibition, mechanism study, biochemical, fluorescence (AID 2068); assay type: functional
T1 sequence (P35236 whole entry): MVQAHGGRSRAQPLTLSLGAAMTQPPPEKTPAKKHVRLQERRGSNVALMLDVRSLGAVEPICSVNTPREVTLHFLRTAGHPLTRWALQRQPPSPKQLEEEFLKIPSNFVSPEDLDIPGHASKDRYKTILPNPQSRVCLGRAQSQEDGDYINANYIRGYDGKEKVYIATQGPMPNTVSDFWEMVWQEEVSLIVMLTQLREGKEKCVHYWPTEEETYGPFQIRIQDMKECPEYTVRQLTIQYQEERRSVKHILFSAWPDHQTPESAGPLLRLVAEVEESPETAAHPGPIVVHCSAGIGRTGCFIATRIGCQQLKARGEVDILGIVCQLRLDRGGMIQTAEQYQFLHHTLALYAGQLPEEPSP

[4] = target: Dual specificity protein phosphatase 3 (Homo sapiens, UniProt P51452); test: SAR VHR1 Fluorescent Assay for In Vitro dose response studies Set 2. [Related pubchem assays (depositor defined):AID1654, AID1661, AID1878]; assay type: functional
[5] = target: T2, Dual specificity protein phosphatase 6 (Rattus norvegicus, UniProt Q64346); assay type: functional;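 also: confirmatory in vitro dose-response testing of MKP-3 inhibition; recombinant His-tagged MKP-3 made in E. coli BL21 with OMFP substrate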
T2 sequence (Q64346 whole entry): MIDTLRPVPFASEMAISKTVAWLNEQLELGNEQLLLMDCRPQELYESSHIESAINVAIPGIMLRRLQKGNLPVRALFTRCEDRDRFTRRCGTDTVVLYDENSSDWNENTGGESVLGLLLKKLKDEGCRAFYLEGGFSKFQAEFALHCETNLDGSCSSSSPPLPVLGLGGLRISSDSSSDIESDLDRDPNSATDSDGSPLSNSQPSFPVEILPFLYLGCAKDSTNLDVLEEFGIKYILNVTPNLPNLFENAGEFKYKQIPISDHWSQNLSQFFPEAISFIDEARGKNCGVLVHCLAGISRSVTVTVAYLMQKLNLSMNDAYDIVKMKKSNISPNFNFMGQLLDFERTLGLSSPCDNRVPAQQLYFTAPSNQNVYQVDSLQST

[6] = target: T3, Coagulation factor XII (Homo sapiens, UniProt P00748); test: FXIIa inhibitor potency, concentration-response, biochemical (AID 716); assay type: functional
T3 sequence (P00748 whole entry): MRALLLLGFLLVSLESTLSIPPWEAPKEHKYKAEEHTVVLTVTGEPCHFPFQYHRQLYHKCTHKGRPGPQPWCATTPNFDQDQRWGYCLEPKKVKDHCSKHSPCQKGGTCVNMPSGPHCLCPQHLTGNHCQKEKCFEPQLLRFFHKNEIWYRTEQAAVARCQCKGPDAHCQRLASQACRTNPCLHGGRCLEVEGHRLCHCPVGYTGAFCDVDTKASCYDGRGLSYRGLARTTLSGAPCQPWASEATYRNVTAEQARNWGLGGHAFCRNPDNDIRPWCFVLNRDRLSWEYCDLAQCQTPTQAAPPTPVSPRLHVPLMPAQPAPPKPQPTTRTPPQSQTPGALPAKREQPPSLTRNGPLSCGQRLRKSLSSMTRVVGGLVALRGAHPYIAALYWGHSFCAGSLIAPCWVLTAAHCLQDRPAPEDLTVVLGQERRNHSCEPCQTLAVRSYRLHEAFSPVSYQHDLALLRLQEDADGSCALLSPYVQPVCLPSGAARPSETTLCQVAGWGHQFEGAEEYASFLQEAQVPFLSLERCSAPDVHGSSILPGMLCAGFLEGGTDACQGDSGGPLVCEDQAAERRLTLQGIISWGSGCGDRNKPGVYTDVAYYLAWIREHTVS

[7] = tested on: Streptococcus sp. 'group A'; test: growth inhibition of control SK(-) GAS strain, dose response, counter-screen for streptokinase expression inhibitor project, luminescence, kanamycin, BacTiterGlo, confirmation (AID 1900); assay type: functional, organism-based
[8] = target: T4, Streptokinase A (Streptococcus pyogenes serotype M1, UniProt P10520); test: S. pyogenes streptokinase expression inhibitors, potency, dose response, plasminogen activation absorbance, OD405 (AID 1914); assay type: functional, Streptococcus pyogenes M1 GAS;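 also: secreted streptokinase activity via plasminogen activation per viability signal from cell pellet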
T4 sequence (P10520 whole entry): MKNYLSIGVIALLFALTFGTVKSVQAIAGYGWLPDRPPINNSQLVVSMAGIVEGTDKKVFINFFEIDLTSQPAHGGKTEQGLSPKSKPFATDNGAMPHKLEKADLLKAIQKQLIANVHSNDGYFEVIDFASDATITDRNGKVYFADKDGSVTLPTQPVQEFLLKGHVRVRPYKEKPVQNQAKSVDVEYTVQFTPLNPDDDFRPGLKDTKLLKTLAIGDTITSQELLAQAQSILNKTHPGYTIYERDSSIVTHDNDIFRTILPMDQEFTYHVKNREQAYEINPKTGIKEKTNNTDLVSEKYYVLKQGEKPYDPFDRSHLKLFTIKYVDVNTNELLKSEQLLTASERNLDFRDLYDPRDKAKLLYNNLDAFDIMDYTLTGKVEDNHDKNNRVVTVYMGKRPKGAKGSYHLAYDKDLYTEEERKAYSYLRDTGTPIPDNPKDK

[9] = growth suppression of PTEN-null colon cells, dose response, cell-based, HCT116 PTEN knockout (AID 1047); assay type: functional;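 also: HCT116 colon tumor cells with PTEN knocked out; cells exposed to compound for 60 hours before readout; potency for loss of cell viability measured by luminescence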
[10] = growth suppression of beta-catenin-knockout colon cells, dose response, cell-based, HCT116, human colon tumor (AID 1045); assay type: functional;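 also: HCT116 colon tumor cells with beta catenin knocked out; cells exposed to compound for 60 hours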
[11] = tested on: Streptococcus; test: Group A Streptococcus viability loss, dose response, counter-screen for streptokinase expression inhibitor project, luminescence, BacTiterGlo (AID 1915); assay type: functional, organism-based;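 also: potency for reduction of bacterial viability or growth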
[12] = target: T5, Short transient receptor potential channel 4 (Mus musculus, UniProt Q9QUQ5); test: TRPC4 positive allosteric modulators, dose response, cell-based, HEK293 TRPC4/mu-opioid, Fluo-4 calcium, EC20 DAMGO (AID 434941); assay type: functional
T5 sequence (Q9QUQ5 whole entry): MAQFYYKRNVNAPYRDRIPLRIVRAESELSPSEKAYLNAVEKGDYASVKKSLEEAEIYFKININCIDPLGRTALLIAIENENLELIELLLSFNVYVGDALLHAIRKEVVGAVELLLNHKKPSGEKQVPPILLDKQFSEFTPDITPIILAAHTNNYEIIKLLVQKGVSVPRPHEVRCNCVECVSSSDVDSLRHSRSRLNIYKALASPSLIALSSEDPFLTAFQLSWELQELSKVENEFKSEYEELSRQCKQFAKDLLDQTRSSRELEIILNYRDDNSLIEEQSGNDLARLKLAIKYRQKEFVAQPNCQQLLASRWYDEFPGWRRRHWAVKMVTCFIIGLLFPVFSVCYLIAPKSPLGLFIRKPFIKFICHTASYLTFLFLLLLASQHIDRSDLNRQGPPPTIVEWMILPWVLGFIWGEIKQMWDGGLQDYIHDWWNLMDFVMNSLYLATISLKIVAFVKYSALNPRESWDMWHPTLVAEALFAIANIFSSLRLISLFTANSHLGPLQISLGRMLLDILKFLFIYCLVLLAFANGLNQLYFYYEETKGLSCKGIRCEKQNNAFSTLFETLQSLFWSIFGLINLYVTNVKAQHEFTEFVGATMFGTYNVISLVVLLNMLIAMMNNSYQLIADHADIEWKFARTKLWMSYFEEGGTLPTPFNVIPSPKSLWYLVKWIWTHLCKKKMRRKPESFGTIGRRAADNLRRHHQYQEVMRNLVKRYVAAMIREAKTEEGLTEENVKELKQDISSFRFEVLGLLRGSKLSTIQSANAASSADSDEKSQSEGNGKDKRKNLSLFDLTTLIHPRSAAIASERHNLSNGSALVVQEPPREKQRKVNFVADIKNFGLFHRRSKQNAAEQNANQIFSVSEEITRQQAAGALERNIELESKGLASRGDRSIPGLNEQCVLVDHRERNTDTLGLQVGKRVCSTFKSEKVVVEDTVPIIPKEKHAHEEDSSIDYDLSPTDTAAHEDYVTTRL

[13] = target: T6, Corticotropin-releasing factor receptor 2/Corticotropin-releasing factor-binding protein (Homo sapiens, UniProt P24387+Q13324); test: activators of CRF receptor 2 with binding protein – uHTS hits, confirmation (AID 602473); assay type: functional; settings: read-out: EC50_Mean
T6 sequence (Q13324 whole entry): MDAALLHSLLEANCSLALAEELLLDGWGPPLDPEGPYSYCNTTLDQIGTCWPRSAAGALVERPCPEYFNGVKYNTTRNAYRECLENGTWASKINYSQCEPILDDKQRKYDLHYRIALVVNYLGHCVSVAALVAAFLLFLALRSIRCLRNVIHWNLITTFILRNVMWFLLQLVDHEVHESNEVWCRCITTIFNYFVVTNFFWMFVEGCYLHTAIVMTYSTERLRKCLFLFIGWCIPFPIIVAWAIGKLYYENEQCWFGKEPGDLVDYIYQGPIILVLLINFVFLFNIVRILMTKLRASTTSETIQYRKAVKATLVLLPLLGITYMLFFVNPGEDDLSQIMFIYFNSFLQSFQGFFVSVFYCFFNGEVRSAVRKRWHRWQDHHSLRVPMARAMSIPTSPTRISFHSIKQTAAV
T6 sequence (P24387 whole entry): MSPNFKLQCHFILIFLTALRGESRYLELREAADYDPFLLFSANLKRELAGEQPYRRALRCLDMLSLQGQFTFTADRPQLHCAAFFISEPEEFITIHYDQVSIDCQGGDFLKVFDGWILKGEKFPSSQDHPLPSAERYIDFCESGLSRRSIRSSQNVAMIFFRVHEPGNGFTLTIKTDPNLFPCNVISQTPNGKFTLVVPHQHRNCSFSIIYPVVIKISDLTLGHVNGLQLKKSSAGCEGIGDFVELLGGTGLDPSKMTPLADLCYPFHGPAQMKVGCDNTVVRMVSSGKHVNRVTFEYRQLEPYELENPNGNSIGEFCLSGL

Sequence of Dual specificity protein phosphatase 3 (P51452 whole entry): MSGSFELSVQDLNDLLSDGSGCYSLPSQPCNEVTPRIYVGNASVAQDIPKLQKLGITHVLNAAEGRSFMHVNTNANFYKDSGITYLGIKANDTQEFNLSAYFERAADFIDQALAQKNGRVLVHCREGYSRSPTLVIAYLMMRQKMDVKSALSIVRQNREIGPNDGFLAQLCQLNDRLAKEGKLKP
Sequence of Voltage-dependent T-type calcium channel subunit alpha-1H (O95180 whole entry): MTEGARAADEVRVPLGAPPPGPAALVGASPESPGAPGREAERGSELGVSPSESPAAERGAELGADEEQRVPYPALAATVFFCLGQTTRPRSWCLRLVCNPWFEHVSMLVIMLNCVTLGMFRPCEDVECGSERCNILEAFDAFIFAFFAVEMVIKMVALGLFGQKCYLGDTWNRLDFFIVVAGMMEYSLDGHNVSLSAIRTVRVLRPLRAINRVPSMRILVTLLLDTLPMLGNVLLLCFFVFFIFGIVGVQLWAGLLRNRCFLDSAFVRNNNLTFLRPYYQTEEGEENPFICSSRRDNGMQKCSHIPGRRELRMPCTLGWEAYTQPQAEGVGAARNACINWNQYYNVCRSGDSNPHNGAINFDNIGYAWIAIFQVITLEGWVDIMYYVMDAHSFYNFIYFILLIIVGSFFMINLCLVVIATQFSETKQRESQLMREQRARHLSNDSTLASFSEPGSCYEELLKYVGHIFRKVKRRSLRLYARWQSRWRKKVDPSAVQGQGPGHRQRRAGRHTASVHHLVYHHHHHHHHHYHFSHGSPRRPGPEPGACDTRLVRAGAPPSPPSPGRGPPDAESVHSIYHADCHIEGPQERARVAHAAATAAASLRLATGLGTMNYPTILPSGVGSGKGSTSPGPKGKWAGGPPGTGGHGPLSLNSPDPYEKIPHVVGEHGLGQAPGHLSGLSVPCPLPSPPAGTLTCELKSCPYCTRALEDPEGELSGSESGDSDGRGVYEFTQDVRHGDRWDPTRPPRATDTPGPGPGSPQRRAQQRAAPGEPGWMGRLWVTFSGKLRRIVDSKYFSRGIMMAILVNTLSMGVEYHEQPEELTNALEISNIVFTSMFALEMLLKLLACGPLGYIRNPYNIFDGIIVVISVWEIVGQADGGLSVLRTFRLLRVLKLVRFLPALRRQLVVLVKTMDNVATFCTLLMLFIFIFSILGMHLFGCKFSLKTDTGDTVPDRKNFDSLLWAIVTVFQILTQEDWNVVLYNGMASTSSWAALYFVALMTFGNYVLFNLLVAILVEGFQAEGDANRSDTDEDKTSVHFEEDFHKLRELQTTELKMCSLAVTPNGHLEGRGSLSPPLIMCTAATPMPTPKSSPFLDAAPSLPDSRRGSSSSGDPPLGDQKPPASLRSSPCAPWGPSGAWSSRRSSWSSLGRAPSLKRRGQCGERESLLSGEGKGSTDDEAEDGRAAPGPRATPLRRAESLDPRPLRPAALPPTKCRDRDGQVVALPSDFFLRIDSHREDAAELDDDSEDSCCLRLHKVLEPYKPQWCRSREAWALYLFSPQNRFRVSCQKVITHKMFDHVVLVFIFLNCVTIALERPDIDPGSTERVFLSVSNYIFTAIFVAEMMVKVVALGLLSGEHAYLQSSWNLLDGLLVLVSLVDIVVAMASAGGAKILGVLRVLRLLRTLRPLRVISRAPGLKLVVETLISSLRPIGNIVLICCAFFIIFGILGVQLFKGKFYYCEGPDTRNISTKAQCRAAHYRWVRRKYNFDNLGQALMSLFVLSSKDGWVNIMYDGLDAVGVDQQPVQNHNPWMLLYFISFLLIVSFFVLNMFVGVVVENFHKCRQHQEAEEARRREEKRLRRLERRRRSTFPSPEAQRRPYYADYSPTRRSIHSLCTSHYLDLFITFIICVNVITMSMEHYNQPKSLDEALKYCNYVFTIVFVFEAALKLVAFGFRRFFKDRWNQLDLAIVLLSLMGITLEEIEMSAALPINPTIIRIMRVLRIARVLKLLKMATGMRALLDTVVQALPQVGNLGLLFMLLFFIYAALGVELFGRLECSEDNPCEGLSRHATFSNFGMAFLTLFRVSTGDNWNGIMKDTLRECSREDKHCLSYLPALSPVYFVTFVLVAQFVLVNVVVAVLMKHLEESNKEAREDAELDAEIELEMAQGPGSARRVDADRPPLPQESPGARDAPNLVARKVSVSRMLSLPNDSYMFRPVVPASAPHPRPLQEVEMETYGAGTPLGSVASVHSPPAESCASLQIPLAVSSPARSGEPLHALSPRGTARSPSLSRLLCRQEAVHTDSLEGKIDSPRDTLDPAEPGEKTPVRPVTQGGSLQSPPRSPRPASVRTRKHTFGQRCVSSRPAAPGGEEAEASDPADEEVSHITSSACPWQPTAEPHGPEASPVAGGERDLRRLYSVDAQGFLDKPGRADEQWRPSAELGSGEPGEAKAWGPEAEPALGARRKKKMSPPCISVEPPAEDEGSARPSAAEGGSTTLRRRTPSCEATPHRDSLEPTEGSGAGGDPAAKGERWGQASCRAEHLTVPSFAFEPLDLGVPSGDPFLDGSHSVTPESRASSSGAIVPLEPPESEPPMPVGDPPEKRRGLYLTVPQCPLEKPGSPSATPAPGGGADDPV

O=C(/C=C/c1nc2ccccc2s1)N1CCCCCC1
EC50 [1]: > 71.5 µM (inactive)

O=C(COc1ccccc1F)Nc1nnc(-c2ccc(F)cc2)o1
EC50 [2]: 10 µM (active)

NS(=O)(=O)c1cc(C(=O)Nc2cccc(Cl)c2)ccc1Cl
IC50 [3]: > 100 µM (inactive)
IC50 [4]: > 100 µM (inactive)
IC50 [5]: > 100 µM (inactive)

O=C(O)COc1ccc2c(c1)OCCO2
IC50 [6]: > 50 µM (inactive)

Cc1ccc(Cl)cc1N1CCN(C(=O)c2cccc3c(=O)c(C)c(-c4ccccc4)oc23)CC1
EC50 [7]: 5.59 µM (active)
EC50 [8]: 16 µM (active)
EC50 [9]: 8.26 µM (active)
EC50 [10]: 9.86 µM (active)
EC50 [11]: > 150 µM (not active)
EC50 [12]: 6.68 µM (active)
EC50 [13]: > 53 µM (inactive)
